Assay results reported in patent US10449200B2, “Combined inhibition of the vitamin D receptor and poly(ADP) ribose polymerase (PARP) in the treatment of cancer” (Institute for Cancer Research, priority 2014, dated 2019).

How the values were obtained:
Assay type in all cases: cell-based, human
Panc1 cells [1] = assay: Immunofluorescence of DNA damage foci (phospho-γH2AX, Rad51) after gemcitabine
Experimental: (§1) For Immunofluorescence, cells were plated onto coverslips 24 hours pre-gemcitabine treatment. At different timepoints post gemcitabine treatment, cells were permeablized, fixed (4% paraformaldehyde) and stained. Antibodies to γH2AX (Millipore; 05-636), Rad51 (a gift), and 53BP1 were used. Alexa Fluor-conjugated (488, 555, and 647 nm) secondary antibodies (Molecular probes; A-11029, A-21428, A-21247) were used at a final concentration of 1 and nuclei counterstained with DAPI. Images were captured using a 40× or 63× high NA objective mounted on a semi-automated inverted microscope (Nikon TEi) with a charge-coupled device camera (Photometrics1394) using Nikon Elements 2.0. Exposure times for antibodies were optimized for control samples and identical exposure times used for the experimental samples. Images were quantitated and analyzed using Nikon Elements 2.0. Confocal images were taken using a Leica TCS-SP8 microscope controlled by LAS software (Leica Microsystems).
(§2) It was investigated if these repair pathways were abrogated after VDR knockdown by staining for foci formation by phospho-γH2AX, Rad51, and 53BP1, and measuring intensities after gemcitabine treatment (FIGS. 3, 4, and 5). BxPC3 (high VDR expression) and Panc1 (low VDR expression) cells were treated with gemcitabine (50 nM) for 2, 4, 8, and 18 hours, and fixed and stained for phospho-γH2AX, 53BP1, and Rad51. Foci quantitation included counting of nuclei with >5 foci and a separate measurement of the sum intensities of foci that were averaged for 5 separate immunofluorescence experiments.

Panc1 cells [2] = assay: Clonogenic survival assay, gemcitabine; details: for IC50: Homo sapiens
Experimental: Cell culture and chemicals. Panc1, BxPC3, and CFPAC1 cells were purchased from American Type Culture Collection (ATCC) and banked in house until use. Cell lines were cultured in DMEM/10% FBS supplemented with 2 mM glutamine and 1% penicillin, streptomycin, and kanamycin (PSK) and were maintained at 37° C. in 5% CO2. Charcoal stripped (in house cell culture facility) and dialyzed FBS (Life Technologies; 509 26400-036) were used. Gemcitabine was obtained from the in house pharmacy. Rucaparib and trichostatin A were gifts.
Cell viability assays. For clonogenic assays, 1000 cells per well were seeded into 6 well plates on day 0. Cells were treated with gemcitabine at various doses on day 1 for 24 hours, Gemcitabine was washed out on day 2, and cells were allowed to grow for a subsequent 10 days before being fixed (10% methanol+10% acetic acid) and stained with crystal violet (0.4% in 20% ethanol) for colony counting and quantitation. For Rucaparib clonogenic assays, the drug was added at various doses 24 hours after cell plating, and cells were allowed to grow for a subsequent 10 days in the presence of Rucaparib. For TSA clonogenic assays, the drug was added for 4 hours prior to addition of gemcitabine or vehicle for another 18 hours before drugs were washed away, and cells were allowed to grow in drug-free medium for 10 days.

BxPC3 cells = assay: Immunofluorescence of DNA damage foci (phospho-γH2AX, Rad51, 53BP1) after gemcitabine; details: for cells positive for Rad51 foci (>5 foci/nucleus): 18 hrs post gemcitabine
Experimental: as §1
as §2, with “experiments. […] Weak but detectable phospho-γH2AX foci were visible within 4 hours of gemcitabine treatment in BxPC3 cells while it took 18 hours for foci to form in Panc1 cells (FIG. 3, A). Similarly, Rad51 foci were visible after 8 hours of gemcitabine treatment in BxPC3 cells compared to 18 hours in Panc1 cells (FIG. 3, A, FIG. 4, and FIG. 5).” for “experiments.”

VDR = assay: Western blot of VDR expression after gemcitabine; details: gemcitabine 50 nM 18 hrs
Experimental: Western Blotting. BxPC3, Panc1, and CFPAC1 cells were treated with vehicle or gemcitabine (50 nM) for 18 hrs. Cells were harvested, washed in PBS and lysed in NP40 lysis buffer (1% NP40/PBS/10% glycerol) with protease and phosphatase inhibitors. Protein concentrations were determined with MicroBCA Assay (Pierce Biotechnology; 23224 and 23228) and then SDS sample buffer was added to the lysates. 40 μg of boiled lysates was separated by SDS-PAGE and then transferred onto Immobilon P membrane (Millipore; IPVH00010). Antibodies used for immunoblotting were obtained from: VDR (Epitomics; 3277-1), γH2AX (Upstate Biotechnologies, now Millipore; 05-636), Rad51 (Genetex; GTX70230, gift), p300 (Santa Cruz Biotechnologies; SC-584), and TAO1 kinase (Bethyl Labs; A300-524A).
Next, the levels of VDR protein were compared in BxPC3, CFPAC1, and Panc1 cells to see if the amount of expression might correlate with gemcitabine sensitivity.

[3] = BxPC3 VDRkd, 18 hours after gemcitabine
[4] = BxPC3 VDRkd, 18 hours of gemcitabine
[5] = Panc1 cells or VDR depleted BXPC3 versus BxPC3, after gemcitabine
[6] = parental BxPC3, 18 hours of gemcitabine

With `Nc1ccn([C@@H]2O[C@H](CO)[C@@H](O)C2(F)F)c(=O)n1` [gemcitabine] the “time until Rad51 foci visible after gemcitabine” value (Panc1 cells [1]; Panc1, gemcitabine 50 nM) was 18 h, the “time until phospho-γH2AX foci form after gemcitabine” value (Panc1 cells [1]; Panc1, gemcitabine 50 nM) was 18 h and the “time until phospho-γH2AX and Rad51 foci after gemcitabine addition” value (Panc1 cells [1]; Panc1 transfected with VDR siRNA) was 18 h. For the same compound, the “time until phospho-γH2AX and Rad51 foci after gemcitabine addition” value (Panc1 cells [1]; Panc1 transfected with control) was about 8 h, the IC50 (Panc1 cells [2]; PANC-1, Panc1, VDR knockdown (siRNA)) was about 18 nM and the IC50 (Panc1 cells [2]; PANC-1, Panc1, control cells (control shRNA)) was about 19 nM. It also gave an IC50 (Panc1 cells [2]; PANC-1, Panc1, control transfected) of about 30 nM, an IC50 (Panc1 cells [2]; PANC-1, Panc1, p300 knockdown) of about 16 nM and an IC50 (Panc1 cells [2]; PANC-1, Panc1 transfected with WT-VDR (overexpression)) of about 250 nM. For the same compound, the IC50 (Panc1 cells [2]; PANC-1, Panc1 transfected with vector) was about 25 nM, the IC50 (Panc1 cells [2]; PANC-1, Panc1 cells) was about 30 nM and the “cells survived (colony formation) compared to control samples treated with gemcitabine” value (Panc1 cells [2]; Panc1, Chk1 siRNA, 50 nM gemcitabine 24 hours) was 3%. For the same compound, the “cells survived (colony formation) compared to control samples treated with gemcitabine” value (Panc1 cells [2]; Panc1, VDR siRNA, 50 nM gemcitabine 24 hours) was 8%, the “colony formation, vehicle versus gemcitabine” value (Panc1 cells [2]; Panc1, control siRNA, 50 nM gemcitabine 24 hours) was “did not differ significantly” and the “increase of gemcitabine IC50 over controls” value (Panc1 cells [2]; Panc1 cells with increased VDR levels) was about 10 fold. The “time until Rad51 foci detected after gemcitabine” value (BxPC3 cells; BxPC3 VDRkd cells) was 18 h, the “time until phospho-γH2AX foci detected after gemcitabine” value (BxPC3 cells; BxPC3 VDRkd cells) was 8 h and the “cells exhibiting Rad51 foci” value (BxPC3 cells; BxPC3 VDRkd, 4 hrs in gemcitabine (50 nM), absence of TSA) was 11%. The “cells with diffuse phospho-γH2AX pattern” value (BxPC3 cells; [3]) was 82%, the “cells with punctate phospho-γH2AX foci” value (BxPC3 cells; [3]) was 18% and the “cells with clear Rad51 foci” value (BxPC3 cells; [4]) was 28%. For the same compound, the “cells with diffuse 53BP1 pattern” value (BxPC3 cells; [4]) was 69%, the “cells with diffuse Rad51 staining” value (BxPC3 cells; [4]) was 72% and the “cells with punctate 53BP1 foci” value (BxPC3 cells; [4]) was 31%. For the same compound, the “cells positive for Rad51 foci (>5 foci/nucleus)” value (BxPC3 cells; BxPC3 control cells) was about 84%, the “cells positive for Rad51 foci (>5 foci/nucleus)” value (BxPC3 cells; BxPC3 transfected with p300 shRNA) was about 22% and the “delay of Rad51 foci formation kinetics” value (BxPC3 cells; [5]) was 4 h. The “delay of phospho-γH2AX foci formation kinetics” value (BxPC3 cells; [5]) was 6 h, the “reduction of Rad51 foci intensity” value (BxPC3 cells; [5]) was 1.5 fold and the “reduction of phospho-γH2AX foci intensity” value (BxPC3 cells; [5]) was 2 fold. For the same compound, the “reduction of Rad51 focal intensity” value (BxPC3 cells; p300 knockdown cells compared to control cells, gemcitabine treated) was about 35%, the “cells with punctate phospho-γH2AX foci” value (BxPC3 cells; parental BxPC3, 18 hours after gemcitabine) was 94% and the “cells with clear Rad51 foci” value (BxPC3 cells; [6]) was 92%. For the same compound, the “cells with diffuse 53BP1 pattern” value (BxPC3 cells; [6]) was 10%, the “cells with diffuse Rad51 staining” value (BxPC3 cells; [6]) was 8% and the “cells with punctate 53BP1 foci” value (BxPC3 cells; [6]) was 90%. The “time until Rad51 foci visible after gemcitabine” value (BxPC3 cells; parental BxPC3, gemcitabine 50 nM) was 8 h, the “cells exhibiting Rad51 foci” value (BxPC3 cells; parental BxPC3, within 4 hours of gemcitabine treatment) was 92% and the “VDR levels after overnight treatment with gemcitabine” value (shortened to “VDR levels after overnight treatment”) (VDR; BXPC3 cells) was “No noticeable increase”. The “VDR levels after overnight treatment” value (VDR; CFPAC1 cells) was “increased” and the “VDR levels after overnight treatment” value (VDR; Panc1 cells) was “increased”.
